System: participants with SSc-RP
Assay: Pain score recorded during weekly RP attacks (11-point Likert scale)
Assay type: in vivo, human
Details: for Average Pain Score [Mean (SD)]: on treatment, N = 24
Source text: The absolute change in average pain score (11-point Likert scale) of weekly RP attacks from baseline to the end of each Dosing Period will be a secondary outcome variable. The sponsor-developed participant-informed diary will be used to record data. The average pain score of weekly RP attacks is defined as the total pain scores divided by total number of RP attacks within the last 7 days of each dosing period. Average of the last 7 days of screening assessments will be used as baseline for the analysis of all periods. The variable will be calculated similar to frequency data as before.

## COCCOC(=O)C1=C(C)NC(C)=C(C(=O)OC/C=C/c2ccccc2)C1c1cccc([N+](=O)[O-])c1 (stereo not shown) [Cilnidipine, cilnidipine]
Cilnidipine 10 mg (n = 4)
  Average Pain Score, Change From Baseline, Mean: 0.47
  Average Pain Score, Percent Change from Baseline, Mean: 11.76%
  Average Pain Score [Mean (SD)]: 2.82 (2.268)
Cilnidipine 20 mg (n = 3)
  Average Pain Score [Mean (SD)]: 1.28 (1.993)
Cilnidipine (20 mg) (n = 3)
  Average Pain Score, Change From Baseline, Mean: −0.47
  Average Pain Score, Percent Change from Baseline, Mean: −26.89%
  Average Raynaud's Pain: 12%
  Mean pain level at baseline: 2.3
  Mean percent change in pain score from baseline: −11.8%
Pooled Cilnidipine (n = 7)
  Average Raynaud's Pain: −27%

## CN1CC(=O)N2[C@H](c3ccc4c(c3)OCO4)c3[nH]c4ccccc4c3C[C@@H]2C1=O [Tadalafil, tadalafil]
Tadalafil 5 mg (n = 4)
  Average Pain Score, Change From Baseline, Mean: 0.37
  Average Pain Score, Percent Change from Baseline, Mean: 17.20%
  Average Pain Score [Mean (SD)]: 5.84 (4.768)

— patent publication US20240358693A1, “METHODS OF TREATING PAIN” (Aisa Pharma, Inc., priority 2023, published 2024)
